Experimental data as given in ChEMBL document CHEMBL4813980, “A novel class of selective non-nucleoside inhibitors of human DNA methyltransferase 3A” (Bioorg Med Chem Lett, 2021).
Calls of active or inactive are those of the source. The calls are words filed in the database; no cut-off is given here.

Columns and labels:
[1] = Inhibition of bacterial DNA cytosine methyltransferase M.SssI up to 60 uM preincubated for 15 mins followed by DNA addition measured after 30 mins relative to control; details: dose microM <=60, time 15.0 min
[2] = target: T1, DNA (cytosine-5)-methyltransferase 3A (Homo sapiens, UniProt Q9Y6K1); assay: Inhibition of human DNMT3A (628 to 912 residues) preincubated for 15 mins followed by DNA addition measured after 30 mins relative to control
[3] = target: DNA (cytosine-5)-methyltransferase 1 (Homo sapiens) (UniProt P26358); assay: Inhibition of DNMT1 (unknown origin) up to 6 uM preincubated for 15 mins followed by DNA addition measured after 30 mins relative to control; details: dose microM <=6, time 15.0 min
[4] = target: T1, DNA (cytosine-5)-methyltransferase 3A; assay: Mixed type inhibition of human DNMT3A using poly dl-dC as substrate
[5] = target: T1, DNA (cytosine-5)-methyltransferase 3A; assay: Binding affinity to human DNMT3A catalytic domain assessed as inhibition of enzyme-mediated DNA methylation using 3H-AdoMet as substrate incubated for 30 mins
[6] = target: T1, DNA (cytosine-5)-methyltransferase 3A; assay: Binding affinity to human DNMT3A catalytic domain assessed as inhibition of enzyme-mediated DNA methylation using poly dl-dC as substrate incubated for 30 mins
[7] = target: T1, DNA (cytosine-5)-methyltransferase 3A; assay: Mixed type inhibition of human DNMT3A using AdoMet as substrate
[8] = target: T1, DNA (cytosine-5)-methyltransferase 3A; assay: Uncompetitive inhibition of human DNMT3A using AdoMet as substrate
[9] = target: T1, DNA (cytosine-5)-methyltransferase 3A; assay: Uncompetitive inhibition of human DNMT3A using poly dl-dC as substrate

T1 sequence (Q9Y6K1 whole entry, looked up, the tested form may be a part): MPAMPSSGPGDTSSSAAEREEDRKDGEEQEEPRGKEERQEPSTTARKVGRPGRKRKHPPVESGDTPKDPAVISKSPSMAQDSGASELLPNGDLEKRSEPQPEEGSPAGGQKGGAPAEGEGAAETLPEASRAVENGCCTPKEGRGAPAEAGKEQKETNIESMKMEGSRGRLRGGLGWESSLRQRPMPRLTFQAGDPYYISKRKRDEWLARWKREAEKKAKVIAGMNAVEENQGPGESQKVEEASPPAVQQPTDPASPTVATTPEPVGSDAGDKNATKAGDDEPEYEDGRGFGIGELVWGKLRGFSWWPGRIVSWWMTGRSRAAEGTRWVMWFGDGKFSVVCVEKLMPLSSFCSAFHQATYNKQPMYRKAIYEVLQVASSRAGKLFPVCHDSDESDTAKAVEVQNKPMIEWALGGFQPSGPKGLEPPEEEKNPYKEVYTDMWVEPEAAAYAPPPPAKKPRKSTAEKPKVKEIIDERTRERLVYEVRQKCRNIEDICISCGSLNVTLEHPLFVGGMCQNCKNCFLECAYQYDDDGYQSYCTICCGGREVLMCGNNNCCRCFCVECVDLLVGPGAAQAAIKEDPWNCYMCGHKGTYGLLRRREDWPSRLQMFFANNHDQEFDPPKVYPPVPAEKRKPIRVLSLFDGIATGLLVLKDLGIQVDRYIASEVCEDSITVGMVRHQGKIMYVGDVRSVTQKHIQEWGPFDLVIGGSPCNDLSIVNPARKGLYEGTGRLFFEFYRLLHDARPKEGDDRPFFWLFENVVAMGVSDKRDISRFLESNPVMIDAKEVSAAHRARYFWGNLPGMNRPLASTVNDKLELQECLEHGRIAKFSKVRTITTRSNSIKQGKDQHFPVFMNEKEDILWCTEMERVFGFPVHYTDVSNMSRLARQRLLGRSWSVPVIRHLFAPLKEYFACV
Chain of DNA (cytosine-5)-methyltransferase 1 (Homo sapiens) (P26358 whole entry): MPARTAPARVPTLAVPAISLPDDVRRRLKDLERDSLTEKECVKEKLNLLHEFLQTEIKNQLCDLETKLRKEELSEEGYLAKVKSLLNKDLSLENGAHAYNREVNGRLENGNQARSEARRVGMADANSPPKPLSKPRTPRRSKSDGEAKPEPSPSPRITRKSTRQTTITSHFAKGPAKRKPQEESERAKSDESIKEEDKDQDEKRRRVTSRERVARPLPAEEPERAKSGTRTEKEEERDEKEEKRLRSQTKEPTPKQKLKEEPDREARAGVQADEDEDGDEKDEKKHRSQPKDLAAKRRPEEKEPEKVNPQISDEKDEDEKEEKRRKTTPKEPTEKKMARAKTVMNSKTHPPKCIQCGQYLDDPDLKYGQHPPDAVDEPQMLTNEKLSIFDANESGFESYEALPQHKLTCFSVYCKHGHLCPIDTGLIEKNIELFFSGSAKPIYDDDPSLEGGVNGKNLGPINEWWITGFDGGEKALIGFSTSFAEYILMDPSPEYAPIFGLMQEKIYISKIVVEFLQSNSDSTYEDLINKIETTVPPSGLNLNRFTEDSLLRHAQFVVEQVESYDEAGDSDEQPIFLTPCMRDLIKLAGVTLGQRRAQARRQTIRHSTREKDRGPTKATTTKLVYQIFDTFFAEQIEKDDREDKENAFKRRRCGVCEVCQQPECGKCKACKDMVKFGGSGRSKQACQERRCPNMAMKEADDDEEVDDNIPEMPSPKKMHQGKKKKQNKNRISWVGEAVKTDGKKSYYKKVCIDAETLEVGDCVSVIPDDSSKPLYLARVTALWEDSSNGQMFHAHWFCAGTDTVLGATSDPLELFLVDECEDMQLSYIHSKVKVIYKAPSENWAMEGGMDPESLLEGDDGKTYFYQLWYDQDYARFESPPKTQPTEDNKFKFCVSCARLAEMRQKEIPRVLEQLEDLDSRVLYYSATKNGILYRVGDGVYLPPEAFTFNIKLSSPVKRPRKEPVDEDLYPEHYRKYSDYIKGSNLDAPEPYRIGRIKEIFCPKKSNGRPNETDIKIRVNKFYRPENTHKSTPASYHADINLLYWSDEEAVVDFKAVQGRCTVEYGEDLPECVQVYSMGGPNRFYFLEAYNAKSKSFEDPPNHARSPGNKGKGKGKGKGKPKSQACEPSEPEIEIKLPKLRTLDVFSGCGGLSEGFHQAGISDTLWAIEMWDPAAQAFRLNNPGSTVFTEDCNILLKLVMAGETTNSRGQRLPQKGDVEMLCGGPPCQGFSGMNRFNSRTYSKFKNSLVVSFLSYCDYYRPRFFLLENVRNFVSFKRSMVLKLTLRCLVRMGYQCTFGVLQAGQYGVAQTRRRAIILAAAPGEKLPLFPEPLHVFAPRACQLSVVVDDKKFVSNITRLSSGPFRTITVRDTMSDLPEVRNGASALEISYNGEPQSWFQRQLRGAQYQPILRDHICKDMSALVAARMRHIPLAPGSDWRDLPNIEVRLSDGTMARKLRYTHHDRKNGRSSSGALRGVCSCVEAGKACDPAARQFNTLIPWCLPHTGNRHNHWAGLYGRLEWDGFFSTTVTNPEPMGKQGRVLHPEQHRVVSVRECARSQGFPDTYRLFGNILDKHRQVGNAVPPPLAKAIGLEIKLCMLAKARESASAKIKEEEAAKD

Row | inhibition [1] | inhibition [2] | inhibition [3] | Ki [4] [µM] | Ki [5] [µM] | Ki [6] [µM] | Ki [7] [µM] | Ki [8] [µM] | Ki [9] [µM] | SMILES
1 | inactive | Active | Active |  |  |  |  |  |  | COc1ccc(C2=NN(C3CCCCCC3)C(=O)C2(C)C)cc1OCCCCOc1ccc(-c2nn[nH]n2)cc1
2 |  |  |  | 12.6 | 5.03 | 21.6 | 3.7 |  |  | COc1ccc(C2=NN(C3CCCCCC3)C(=O)C2(C)C)cc1OCCCCOc1ccc(-c2nnn[nH]2)cc1
3 | inactive | Active | Active |  | 13.8 | 16.1 |  | 9.16 | 11.4 | COc1ccc(C2=NN(C3CCCCCC3)C(=O)[C@@H]3CC=CC[C@H]23)cc1OCCCCOc1ccc(-c2nnn[nH]2)cc1
